How the values were obtained:
[1] = system: Jurkat; test: Cytotoxicity against human Jurkat cells assessed as inhibition of PMA/ionomycin-induced proliferation measured after 48 hrs by MTT assay; type: functional, cell-based
[2] = system: Splenocyte; test: Cytotoxicity against mouse splenocytes assessed as cell survival at 1 to 30 uM measured after 48 hrs by CCK-8 assay relative to control; type: functional; details: dose 1-30 µM
[3] = system: Jurkat; test: Cytotoxicity against human Jurkat cells assessed as cell survival at 1 to 40 uM measured after 48 hrs by MTT assay relative to control; type: functional; details: dose 1-40 µM
[4] = Inhibition of calcineurin (unknown origin); parameters: species or system Homo sapiens
[5] = system: Splenocyte; test: Cytotoxicity against mouse splenocytes assessed as cell survival at 50 to 100 uM measured after 48 hrs by CCK-8 assay relative to control; type: functional; details: dose 50-100 µM
[6] = target: T1, Nuclear factor of activated T-cells, cytoplasmic 1 (Homo sapiens) (UniProt O95644); test: Inhibition of human NFAT-1 in human Jurkat cells assessed as decrease of PMA/ionomycin-induced IL-2 concentration measured after 44 hrs by western blot assay; type: cell-based; details: dose 5-25 µM
T1 sequence (whole entry): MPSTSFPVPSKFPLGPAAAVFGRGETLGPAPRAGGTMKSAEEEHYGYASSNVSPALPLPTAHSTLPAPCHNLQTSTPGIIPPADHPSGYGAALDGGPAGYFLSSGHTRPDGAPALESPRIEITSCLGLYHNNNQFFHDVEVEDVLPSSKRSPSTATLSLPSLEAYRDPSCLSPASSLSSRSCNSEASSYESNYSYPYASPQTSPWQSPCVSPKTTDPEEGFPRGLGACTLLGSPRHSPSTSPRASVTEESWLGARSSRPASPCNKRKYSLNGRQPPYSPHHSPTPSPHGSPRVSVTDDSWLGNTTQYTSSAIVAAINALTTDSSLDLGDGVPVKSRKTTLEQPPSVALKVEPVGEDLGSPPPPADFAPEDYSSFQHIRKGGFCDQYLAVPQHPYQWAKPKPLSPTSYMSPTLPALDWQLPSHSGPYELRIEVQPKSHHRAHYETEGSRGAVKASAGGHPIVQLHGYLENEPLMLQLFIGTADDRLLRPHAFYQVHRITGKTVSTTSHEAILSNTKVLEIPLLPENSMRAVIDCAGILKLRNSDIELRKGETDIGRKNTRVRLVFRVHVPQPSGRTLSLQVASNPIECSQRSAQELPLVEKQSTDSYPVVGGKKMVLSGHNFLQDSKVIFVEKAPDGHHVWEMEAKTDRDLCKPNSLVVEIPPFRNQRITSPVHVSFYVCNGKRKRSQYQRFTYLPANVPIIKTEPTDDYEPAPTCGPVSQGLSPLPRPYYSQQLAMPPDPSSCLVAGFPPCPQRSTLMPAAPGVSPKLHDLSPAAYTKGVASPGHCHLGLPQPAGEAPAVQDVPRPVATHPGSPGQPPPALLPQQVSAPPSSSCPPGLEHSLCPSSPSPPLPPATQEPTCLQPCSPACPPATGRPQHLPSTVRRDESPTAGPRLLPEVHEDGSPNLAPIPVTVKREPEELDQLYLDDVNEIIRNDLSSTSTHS

[7] = target: T1, Nuclear factor of activated T-cells, cytoplasmic 1 (Homo sapiens); test: Inhibition of human NFAT-1 in human Jurkat cells assessed as decrease of PMA/ionomycin-induced NFAT dephosphorylation measured after 44 hrs by western blot assay; type: cell-based; details: dose 5-25 µM
[8] = target: Protein phosphatase 3 catalytic subunit alpha (Homo sapiens) (UniProt Q08209); test: Inhibition of human calcineurin activity in PMA/ionomycin-induced human Jurkat cells measured after 44 hrs by Malachite green dye based fast green assay; details: dose 1-100 µM
[9] = system: Jurkat; test: Cytotoxicity against human Jurkat cells assessed as cell survival at 75 to 100 uM measured after 48 hrs by MTT assay relative to control; type: functional; details: dose 75-100 µM
[10] = system: Splenocyte; test: Cytotoxicity against mouse splenocytes assessed as cell survival in presence of ConA measured after 44 hrs by CCK-8 assay; type: functional, cell-based

- IC50 [4]: 15.1 µM
- Activity [6]: Dose-Dependent Effect
- Activity [7]: Dose-Dependent Effect
- Activity [8]: Dose-Dependent Effect
Structure (SMILES): CC1=CC(=O)CC(C)(C)[C@@]1(O)/C=C/[C@@H](C)O [BLUMENOL A]
- Activity [1]: Dose-Dependent Effect
- IC50 [1]: 20.2 µM
- Activity [2]: >90%
- Activity [3]: >90%
- Activity [5]: <90%
- Activity [9]: <90%
- Activity [10]: Dose-Dependent Effect
- IC50 [10]: 18.7 µM

Reference: ChEMBL document CHEMBL4823283, “Vomifoliol isolated from mangrove plant Ceriops tagal inhibits the NFAT signaling pathway with CN as the target enzyme in vitro” (Bioorg Med Chem Lett, 2021)
